Measurements from US8124793B2, “Derivatives of ethylene methanedisulfonate as cancer chemotherapeutic agents” (priority 2007, dated 2012).

What was measured:
Type in all cases: cell-based
SN12C = assay: NCI screen, growth of human tumor cells: Renal Cancer SN12C; details: SN12C, 10^−4 molar
Outline: (§1)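 Percent-growth read-out from the NCI cancer cell screen; data annotated by cancer type and molar concentration, ≥60 points per compound.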

LOXIMVI = assay: NCI screen, growth of human tumor cells: Melanoma LOXIMVI; details: LOXIMVI
Outline: as §1

NCI-H522 = assay: NCI screen, growth of human tumor cells: Non-Small Cell Lung NCI-H522; details: NCI-H522, 10^−4 molar
Outline: as §1

MCF 7 = assay: NCI screen, growth of human tumor cells: Breast Cancer MCF 7
Outline: as §1

NCI-H322M = assay: NCI screen, growth of human tumor cells: Non-Small Cell Lung NCI-H322M; details: NCI-H322M, 10^−4 molar
Outline: as §1

NCI-H226 = assay: NCI screen, growth of human tumor cells: Non-Small Cell Lung NCI-H226
Outline: as §1

DU-145 = assay: NCI screen, growth of human tumor cells: Prostate Cancer DU-145; details: DV-145, 10^−4 molar
Outline: as §1

SR = assay: NCI screen, growth of human tumor cells: Leukemia SR; details: SR
Outline: as §1

ACHN = assay: NCI screen, growth of human tumor cells: Renal Cancer ACHN; details: ACHN
Outline: as §1

OVCAR-5 = assay: NCI screen, growth of human tumor cells: Ovarian Cancer OVCAR-5; details: OVCAR-5, 10^−4 molar
Outline: as §1

MDA-MB-231/ATCC = assay: NCI screen, growth of human tumor cells: Breast Cancer MDA-MB-231/ATCC; details: MDA-MB-231/ATCC (Breast Cancer), 10^−4 molar
Outline: as §1

human cancer cells = assay: NCI screen summary over the cancers tested (negative growth of human cancer cells); details: cancers with negative growth / cancers tested
Experimental: In the NCI screening process, each compound was tested and described by a minimum of 60 data points. The test data include, but are not limited to the type of cancer, the molar concentration used in the screen, and the percent growth of the cancer. In some cases, NMR and elemental analysis were used for structural assignment.
The derivatives in the tables are grouped using the same category as in the tables 1-6.

SK-MEL-5 = assay: NCI screen, growth of human tumor cells: Melanoma SK-MEL-5; details: SK-MEL-5, 10^−4 molar
Outline: as §1

SNB-19 = assay: NCI screen, growth of human tumor cells: CNS Cancer SNB-19; details: SNB-19, 10^−4 molar
Outline: as §1

MOLT-4 = assay: NCI screen, growth of human tumor cells: Leukemia MOLT-4; details: MOLT-4 (Leukemia), 10^−4 molar
Outline: as §1

HOP-62 = assay: NCI screen, growth of human tumor cells: Non-Small Cell Lung HOP-62; details: HOP-62, 10^−4 molar
Outline: as §1

UO-31 = assay: NCI screen, growth of human tumor cells: Renal Cancer UO-31; details: UO-31, 10^−4 molar
Outline: as §1

EKVX = assay: NCI screen, growth of human tumor cells: Non-Small Cell Lung EKVX; details: EKVX, 10^−4 molar
Outline: as §1

UACC-62 = assay: NCI screen, growth of human tumor cells: Melanoma UACC-62
Outline: as §1

IGROVI = assay: NCI screen, growth of human tumor cells: Ovarian Cancer IGROVI; details: IGROVI
Outline: as §1

SF-295 = assay: NCI screen, growth of human tumor cells: CNS Cancer SF-295
Outline: as §1

AS49/ATCC = assay: NCI screen, growth of human tumor cells: Non-Small Cell Lung AS49/ATCC; details: A549/ATCC, 10^−4 molar
Outline: as §1

MDA-MB-435 = assay: NCI screen, growth of human tumor cells: Breast Cancer MDA-MB-435
Outline: as §1

OVCAR-8 = assay: NCI screen, growth of human tumor cells: Ovarian Cancer OVCAR-8; details: OVCAR-8, 10^−4 molar
Outline: as §1

UACC-257 = assay: NCI screen, growth of human tumor cells: Melanoma UACC-257; details: UACC-257, 10^−4 molar
Outline: as §1

HCC-2998 = assay: NCI screen, growth of human tumor cells: HCC-2998 (listed under Non-Small Cell Lung)
Outline: as §1

SNB-75 = assay: NCI screen, growth of human tumor cells: CNS Cancer SNB-75
Outline: as §1

SF-539 = assay: NCI screen, growth of human tumor cells: CNS Cancer SF-539
Outline: as §1

OVCAR-3 = assay: NCI screen, growth of human tumor cells: Ovarian Cancer OVCAR-3; details: OVCAR-3, 10^−4 molar
Outline: as §1

SK-MEL-2 = assay: NCI screen, growth of human tumor cells: Melanoma SK-MEL-2; details: SK-MEL-2, 10^−4 molar
Outline: as §1

SF-268 = assay: NCI screen, growth of human tumor cells: CNS Cancer SF-268
Outline: as §1

OVCAR-4 = assay: NCI screen, growth of human tumor cells: Ovarian Cancer OVCAR-4; details: OVCAR-4, 10^−4 molar
Outline: as §1

U-251 = assay: NCI screen, growth of human tumor cells: CNS Cancer U-251
Outline: as §1

CC1=C(CC2S(=O)(=O)OCCOS2(=O)=O)C(=O)c2ccccc2C1=O [NSC 693874, ethylene (3-methyl-1,4-naphtho-2-quinoyl)-1,1-ethanedisulfonate]
% Growth (SN12C): −100%
% Growth (LOXIMVI; 10^−4 molar): −95%
% Growth (LOXIMVI; 10^−5 molar): 35%
% Growth (NCI-H522): −69%
% Growth (MCF 7; MCF7, 10^−4 molar): −83%
% Growth (MCF 7; MCF7, 10^−5 molar): 56%
% Growth (NCI-H322M): −100%
% Growth (NCI-H226; NCI-H226, 10^−4 molar): −82%
% Growth (NCI-H226; NCI-H226, 10^−5 molar): 48%
% Growth (DU-145): −94%
% Growth (SR; 10^−4 molar): −45%
% Growth (SR; 10^−5 molar): −15%
% Growth (SR; 10^−6 molar): 9%
% Growth (SR; 10^−7 molar): 48%
% Growth (SR; 10^−8 molar): 79%
% Growth (ACHN; 10^−4 molar): −100%
% Growth (ACHN; 10^−5 molar): 50%
% Growth (OVCAR-5): −98%
percent of growth of human tumor cells (MDA-MB-231/ATCC): −22%
Percentage of cancers showing negative growth cancers tested (human cancer cells; 10^−4 M conc.): 98%
Percentage of cancers showing negative growth cancers tested (human cancer cells; 10^−5 M conc.): 12%
% Growth (SK-MEL-5): −100%
% Growth (SNB-19): −92%
percent of growth of human tumor cells (MOLT-4): −51%
% Growth (HOP-62): −94%
% Growth (UO-31): −97%
% Growth (EKVX): −93%
% Growth (UACC-62; UACC-62, 10^−4 molar): −92%
% Growth (UACC-62; UACC-62, 10^−5 molar): 48%
% Growth (IGROVI; 10^−4 molar): −100%
% Growth (IGROVI; 10^−5 molar): 52%
% Growth (SF-295; SF-295, 10^−4 molar): −100%
% Growth (SF-295; SF-295, 10^−5 molar): 32%
% Growth (AS49/ATCC): −93%
% Growth (MDA-MB-435; MDA-MB-435, 10^−4 molar): −92%
% Growth (MDA-MB-435; MDA-MB-435, 10^−5 molar): 54%
% Growth (OVCAR-8): −71%
% Growth (UACC-257): −100%
% Growth (HCC-2998; HCC-2998, 10^−4 molar): −100%
% Growth (HCC-2998; HCC-2998, 10^−5 molar): 50%
% Growth (SNB-75; SNB-75, 10^−4 molar): −96%
% Growth (SNB-75; SNB-75, 10^−5 molar): −21%
% Growth (SNB-75; SNB-75, 10^−6 molar): 6%
% Growth (SNB-75; SNB-75, 10^−7 molar): 27%
% Growth (SNB-75; SNB-75, 10^−8 molar): 6%
% Growth (SF-539; SF-539, 10^−4 molar): −100%
% Growth (SF-539; SF-539, 10^−5 molar): 51%
% Growth (OVCAR-3): −100%
% Growth (SK-MEL-2): −85%
% Growth (SF-268; SF-268, 10^−4 molar): 10%
% Growth (SF-268; SF-268, 10^−5 molar): 49%
% Growth (OVCAR-4): −89%
% Growth (U-251; U251, 10^−4 molar): −25%
% Growth (U-251; U251, 10^−5 molar): 57%
